# Source: patent US20260283997A1, “METHODS FOR INHIBITING RESISTANCE TO IMMUNE BLOCKADE INHIBITOR THERAPY” (H. LEE MOFFITT CANCER CENTER AND RESEARCH INSTITUTE, INC., priority 2023, published 2026)
# “Also recorded” adds a separate entry of the source.
# Experiments:
# [1] = tested on: stage IIIB through IV melanoma; conditions: adjuvant, cited from earlier work; for 12-month RFS rate: stage IIIB through IV melanoma
# [2] = tested on: antigen presentation from DCs to CD4+ T cells; assay: DC antigen presentation to OT-II CD4+ T cells, [3H]-thymidine incorporation; format: cell-based, mouse; conditions: for MDSC inhibition of antigen presentation in the presence of iNOS inhibitor: MDSCs derived from B16 melanoma, OVA peptide stimulus
# Protocol: For space constraints only the OVA peptide stimulus is depicted in B and C.
# The effects of NO on DC function using transgenic mice were evaluated that express a T cell receptor (TCR) specific for a defined antigen, namely OVA. […] Levels of SNAP or other NO donors such as deta-NONOate can be adjusted to mimic the physiological concentration of NO within MDSCs and be utilized to directly measure binding of tetramers to the TCR complex. To simulate a real world scenario of antigen expressed naturally by the B16 tumors as advised by the reviewers, We can utilize transgenic mice that express a T cell receptor (TCR) specific for the Tyrosinase-Related Protein 1 (Trp-1).
# B16 melanoma = assay: PD-1 refractory B16 melanoma model; format: in vivo, mouse
# Excerpt: NCX-4016 is a nitroaspirin and inhibits the nitric oxide synthase via a negative feedback mechanism. These compounds are available for clinical trial use, and have a toxicity profile that is favorable for evaluation in patients with advanced malignancies. I predict nitroaspirin compounds in combination with anti-PD-1 therapy can rescue the ability to stimulate CD4^+ T cells and decrease tumor growth. […] We can use nitroaspirin alone and along with anti-PD-1 in therapeutically achievable doses in the murine B16 melanoma model to measure tumor growth curves and obtain specimens for analyses.
# stage III melanoma = conditions: cited from earlier work
# STAT1 [3] = assay: pSTAT1 flow cytometry of normal donor PBMCs stimulated with interferon-alpha; format: cell-based, human
# Protocol: FIGS. 20A, 20B, and 20C show Interferon-alpha stimulation of normal donors PBMCs.
# (§1) Flow cytometry and mass spectrometry analyses. Flow cytometric analysis of pSTAT1 and liquid chromatography-tandem mass spectrometry (LC-MS-MS) analysis of nitrated STAT1 (nSTAT1) were conducted on all samples. For flow cytometry studies, frozen PBMCs were thawed at 37° C., washed with culturing media, and allowed to rest overnight in complete media at 5% CO2 at 37° C. PBMCs were stimulated with interferon-α (Miltenyi Biotec, Cambridge, MA) at 0, 10^2 U/mL, and 10^4 U/mL and incubated for 15 minutes in media.
# (§2) The live/dead marker Zombie NIR (BioLegend, San Diego, CA) was used before permeabilization to distinguish live cells. The samples were permeabilized using the FIX & PERM Cell Permeabilization Kit with methanol modification (Fisher Scientific, Hampton, MA) and fixed at −20° C. for a minimum of 2 hours. pSTAT1 was detected by a pSTAT1 antibody (AF488; BD Biosciences, San Jose, CA). Flow cytometry data were collected either on Canto or LSRII flow cytometers (BD Biosciences, San Jose, CA), and data were analyzed in FCS Express (De Novo Software, Pasadena, CA). Measurement of patient-derived PBMCs for nSTAT1 and native STAT1 via LC-MS-MS SRM experiments was performed. […]
# [4] = tested on: resected stages IIIC/IV melanoma; assay: Phase II trial of adjuvant ipilimumab with a peptide vaccine, clinical outcome; format: in vivo, human
# Protocol: Patient samples. […] Peripheral blood leukocytes were collected before initiation of ipilimumab treatment and at approximately 150 days after the first treatment. PBMCs were available and were de-identified before inclusion in our current study.
# Statistical analyses. We conducted statistical analyses to determine whether there is a relationship between levels of pSTAT1, nSTAT1, and RFS. Survival outcome was summarized using Kaplan-Meier method and log-rank test was performed to evaluate the association of survival outcome with pSTAT1 and nSTAT1 levels dichotomized by the median-split method. […] Levene's F-test for the homogeneity of variance was used to compare variance of pSTAT1 level among patients with different RFS rates. Patients were also stratified using the median-split method for a survival comparison analysis of [nSTAT1]post-[nSTAT1]pre with ipilimumab treatment. […] A two-sided P value of <0.05 was considered statistically significant. Treatment outcome is reported at the end of the follow up period for the parent trial (5 years).
# Patient demographics. Pre- and post-therapy PBMCs were available from 35 patients with resected stages IIIC/IV melanoma.
# STAT1 [5] = assay: pSTAT1 flow cytometry of patient PBMCs pre versus post ipilimumab; format: in vivo, human
# Protocol: FIGS. 22A, 22B, and 22C show the paired pSTAT1 level pre versus post ipilimumab treatment without (FIG. 22A) Interferon-alpha stimulation, after (FIG. 22B) 10^2 U/mL Interferon-alpha stimulation, and (FIG. 22C) 10^4 U/mL Interferon-alpha stimulation.
# as §1
# as §2, with “CA).” for “CA). Measurement of patient-derived PBMCs for nSTAT1 and native STAT1 via LC-MS-MS SRM experiments was performed.”
# B16 melanoma cells = assay: Cytotoxicity of PMEL CD8 T cells against gp-100 coated B16 cells, flow cytometry; format: cell-based; conditions: 100 μM; p=0.02
# Protocol: Cytoxicity was measured via flow cytometry with CellTrace™ Far Red (B16 cells) and a live/dead marker (Zombie™ Green).
# STAT1 [6] = assay: Nitrated STAT1 by immunoblot after nitrated tyrosine immunoprecipitation in normal donor PBMC; format: cell-based; conditions: normal donor human PBMC
# Excerpt: An increased [nSTAT1]/[STAT1] ratio can be associated with resistance to anti-PD-1 therapy. Unfractionated PBMC samples are utilized for the mass spectrometry experiments as they are routinely collected from patients and with the expectation of STAT1 having increased nitration (FIG. 4). A second aliquot of PBMCs from the patients can be stimulated in parallel with IFN and subsequent downstream activation determined via measurement of phosphorylated STAT1. Activation of STAT1 can be measured by intracellular staining for activated (i.e. phosphorylated) STAT1 using flow cytometry. IFN responsiveness decreases by ~30% in metastatic cancer patients. There is an inverse relationship between the levels of pSTAT1 and levels of nitrated STAT1. As a control, STAT1 nitration can be measured in normal donor PBMCs treated with SNAP via immunoblot (FIG. 13). As such, PBMCs from melanoma patients can be compared to normal donors. […] Additional nitrated proteins can be quantified in the future via LC-MRM (Liquid Chromatography, multiple reaction monitoring) including the targets outlined in the introductory material (assay requires <200,000 cells); and can expand the list of which nitration events are important for response to anti-PD1 therapy in case STAT1 is not the only important target.
# T cells = assay: T cell proliferation after tetanus toxoid antigen presentation from human DC in PBMC sample; format: cell-based; conditions: tetanus toxoid 1 ug/ul
# [7] = n = 35, end of follow up period (5 years)
compound,measurement,setting,value
nivolumab: Monoclonal antibody against PD-1,12-month RFS rate,[1],70.5%
same,toxicity compared to ipilimumab,[1],significantly decreased toxicity
"COC(=O)[C@@H](N)CCCNC(=N)N[N+](=O)[O-] [L-NAME, L-nitroarginine methyl ester]",MDSC inhibition of antigen presentation in the presence of iNOS inhibitor,[2],this effect was abrogated
CC(=O)Oc1ccccc1C(=O)Oc1cccc(CO[N+](=O)[O-])c1 [NCX-4016],iNOS expression with iNOS inhibitor in-vivo,B16 melanoma; B16 melanoma model,iNOS expression is decreased
same,efficacy in combination with anti-PD1 blockade,"B16 melanoma; PD-1 refractory B16 melanoma model, combination with anti-PD-1",more efficacious than either treatment alone; also recorded: increases the efficacy of anti-PD1 blockade
same,MDSC inhibition of antigen presentation in the presence of iNOS inhibitor,[2],this effect was abrogated
pembrolizumab: Monoclonal antibody against PD-1,efficacy compared to interferon-α or ipilimumab,stage III melanoma,increased efficacy
interferon-α,pSTAT1 levels with increasing interferon levels,STAT1 [3],concentration-dependent increase in pSTAT1 levels
same,concentration showing near-maximum phosphorylation of STAT1,STAT1 [3]; 15 minutes of treatment,500 U/ml
ipilimumab: Monoclonal antibody against CTLA-4,"RFS, 3 mg/kg vs 10 mg/kg",[4]; Log rank P-value=0.96,no statistical significant differences in RFS
same,"Treatment outcome AWD (alive with disease), Percentage",[4]; [7],6%
same,"Treatment outcome DOD (died of disease), Percentage",[4]; [7],17%
same,"Treatment outcome NED (no evidence of disease), Percentage",[4]; [7],77%
same,levels of STAT1 pre versus post treatment,"STAT1 [5]; 10 mg/kg cohort, t-test, p<0.01",statistically significant increase
same,changes in pSTAT1 between the 10 mg/kg and 3 mg/kg cohorts,STAT1 [5]; 150 days post treatment,no statistically significant changes in pSTAT1
same,12-month RFS rate,[1],60.8%
"CC(=O)NC(C(=O)O)C(C)(C)SN=O (racemic) [SNAP, S-Nitroso-N-Acetyl-D,L-Penicillamine]",cytotoxicity of target B16 melanoma cells by effector PMEL CD8 T cells,B16 melanoma cells,reduced
same,DC antigen presentation to CD4+ T cells (proliferation of OT-II T cells),"[2]; nitric oxide donor SNAP, DCs and CD4+ T cells ratio 1:4 from OT-II mouse",inhibit DC antigen presentation to CD4+ T cells
same,levels of nitrated STAT1,STAT1 [6],elevated levels of nitrated STAT1
same,proliferation of T cells after antigen presentation of tetanus toxoid,T cells,decreases proliferation of T cells
